In ChEMBL document CHEMBL1150975, “Biochemical and three-dimensional-structural study of the specific inhibition of protein kinase CK2 by [5-oxo-5,6-dihydroindolo-(1,2-a)quinazolin-7-yl]acetic acid (IQA)” (Biochem J, 2003):

What was measured:
[1] = molecular target: Receptor tyrosine-protein kinase erbB-2 (Homo sapiens) (UniProt P04626); assay: Percent residual Her-2 activity in the presence of 10uM inhibitor
[2] = molecular target: cAMP-dependent protein kinase (PKA) (Homo sapiens, UniProt P22694+P17612+P22612); assay: Inhibition of PKA; assay type: protein assay

Chain of Receptor tyrosine-protein kinase erbB-2 (Homo sapiens) (P04626 whole entry): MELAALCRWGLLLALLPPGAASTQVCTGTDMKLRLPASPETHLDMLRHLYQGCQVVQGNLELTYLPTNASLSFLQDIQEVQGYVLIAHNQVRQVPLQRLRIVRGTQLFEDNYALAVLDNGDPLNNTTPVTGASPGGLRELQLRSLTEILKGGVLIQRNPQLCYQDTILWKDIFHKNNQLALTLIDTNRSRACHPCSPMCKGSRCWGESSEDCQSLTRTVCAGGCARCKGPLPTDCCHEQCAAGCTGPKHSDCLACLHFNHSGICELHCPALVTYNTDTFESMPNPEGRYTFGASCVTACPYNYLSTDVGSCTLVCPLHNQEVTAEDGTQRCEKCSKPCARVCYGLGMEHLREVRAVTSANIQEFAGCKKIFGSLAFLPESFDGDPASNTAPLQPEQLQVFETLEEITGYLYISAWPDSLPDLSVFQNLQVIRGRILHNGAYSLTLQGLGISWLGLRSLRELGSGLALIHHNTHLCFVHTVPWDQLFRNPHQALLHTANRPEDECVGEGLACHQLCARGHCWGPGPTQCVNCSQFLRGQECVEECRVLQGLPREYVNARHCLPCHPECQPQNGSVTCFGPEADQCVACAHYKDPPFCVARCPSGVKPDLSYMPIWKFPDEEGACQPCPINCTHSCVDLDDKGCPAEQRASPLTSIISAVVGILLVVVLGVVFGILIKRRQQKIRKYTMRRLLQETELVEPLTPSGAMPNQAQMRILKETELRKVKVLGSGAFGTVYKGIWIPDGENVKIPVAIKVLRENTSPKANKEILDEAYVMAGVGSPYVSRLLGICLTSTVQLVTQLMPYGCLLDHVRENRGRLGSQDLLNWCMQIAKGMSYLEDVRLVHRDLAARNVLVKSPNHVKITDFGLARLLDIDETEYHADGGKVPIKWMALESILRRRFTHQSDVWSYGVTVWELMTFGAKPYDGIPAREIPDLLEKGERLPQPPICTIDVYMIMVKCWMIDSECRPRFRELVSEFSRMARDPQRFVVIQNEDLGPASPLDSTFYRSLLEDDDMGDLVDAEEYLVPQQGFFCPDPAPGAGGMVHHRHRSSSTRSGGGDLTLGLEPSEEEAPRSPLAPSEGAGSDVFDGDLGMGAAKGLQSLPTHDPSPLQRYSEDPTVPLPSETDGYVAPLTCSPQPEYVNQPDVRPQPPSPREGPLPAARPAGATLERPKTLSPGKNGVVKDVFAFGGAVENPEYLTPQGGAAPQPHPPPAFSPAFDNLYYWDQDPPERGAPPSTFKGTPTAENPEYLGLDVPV

Q: For `O=C(O)Cc1c2ccccc2n2c1[nH]c(=O)c1ccccc12`, which Activity [1] is on record?
A: 80%

Q: What about the IC50 [2] of the same compound?
A: 16 µM
